Source: paper PMC10112938 (Hypertension (Dallas, Tex. : 1979), 2023)

Legend:
[1] = biological target: T1, adenosine A2B receptor (Homo sapiens, UniProt P29275); experiment: HTRF […]', […]'-cAMP assay in HEK293 cells expressing human A2B receptors; assay type: cell-based
T1 sequence (P29275 1-332): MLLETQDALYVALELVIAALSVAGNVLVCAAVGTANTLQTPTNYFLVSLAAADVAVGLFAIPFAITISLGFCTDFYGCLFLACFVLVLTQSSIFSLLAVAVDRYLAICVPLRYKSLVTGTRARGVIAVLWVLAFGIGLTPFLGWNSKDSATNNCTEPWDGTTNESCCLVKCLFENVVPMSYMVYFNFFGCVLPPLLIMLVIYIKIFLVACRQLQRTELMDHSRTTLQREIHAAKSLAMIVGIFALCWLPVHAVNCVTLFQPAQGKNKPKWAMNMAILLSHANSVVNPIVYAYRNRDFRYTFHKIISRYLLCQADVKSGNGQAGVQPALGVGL

[2] = biological target: T1, adenosine A2B receptor; experiment: as above; assay type: cell-based; remark: listed apart in the source

HTRF 3',5'-cAMP assay in HEK293 cells expressing human A2B receptors; antagonism [1] [µmol/L] | HTRF 3',5'-cAMP assay in HEK293 cells expressing human A2B receptors; response a [2] [µmol/L] | Structure (SMILES)
1 | – | CCCn1c(=O)c2[nH]c(-c3ccc(OCC(=O)Nc4ccc(C#N)cc4)cc3)nc2n(CCC)c1=O [MRS 1754]
– | 3 to 10 | O=c1[nH]cnc2c1ncn2[C@@H]1O[C@H](CO)[C@@H](O)[C@H]1O [inosine]
